Measured values as given in paper PMC11224357, “Green, facile synthesis and evaluation of unsymmetrical carbamide derivatives as antimicrobial and anticancer agents with mechanistic insights” (Scientific Reports, 2024).
Converted amounts (≈) assume the structure as drawn.

Tests used:
Aspergillus fumagitus [1] = experiment: Agar well diffusion; format: cell-based; conditions: Aspergillus fumagitus; 20 µg/mL; read-out: Inhibition Zone
From the text: (§1) The antimicrobial efficiency of the synthesized unsymmetrical carbamide derivatives was screened using standard clinical pathogens derived from Department of Microbiology and Immunology, Faculty of Medicine (Boys), Al-Azhar University. The tested microbial pathogens used in this study were as follows, two Gram-positive bacteria (Bacillus subtilis, Staphylococcus aureus), two Gram-negative bacteria (Pseudomonas aerginousea, klebsiella pneumoniae) and two fungi (Candida albicans, Aspergillus fumgitus). Before each antimicrobial examination, pre-activation of each microbial pathogen was implemented using specific growth conditions. For bacterial ones, preinoculum was prepared using Nuitrent broth medium (Codalab, Spain) at 37 °C for 24 h. while the fungal pathogens were activated using Potato Dextrose broth (Codalab, Spain) at 28 °C for 48 h. Consequently, each tested pathogen justified its inoculum size based on Colony Forming Units (CFU) to be closed to […] during all antimicrobial tests.

Candida albicans [2] = experiment: Agar well diffusion; format: cell-based; conditions: 20 µg/mL, read-out: Inhibition Zone
From the text: as §1

Aspergillus fumagitus [3] = experiment: MIC by microdilution (CLSI); format: cell-based; conditions: read-out: Minimum inhibitory concentration (MIC)
Experimental: (§2) For this purpose, serial dilution of the potent compounds was carried out to obtain the desired concentrations (i.e. 10–400 µg/mL). In brief, a defined weight for each selected compound was dissolved in dimethylsulphoxide (DMSO) and used as a stock solution[29]. The determination of the MIC value for each targeted compound was known as the lowest concentration of each sample that yielded a minimum number of colony-forming units (CFU) compared to the untreated samples[28].

Candida albicans [4] = experiment: MIC by microdilution (CLSI); format: cell-based; conditions: read-out: Minimum inhibitory concentration (MIC)
Experimental: as §2

Bacillus subtilis [5] = experiment: MIC by microdilution (CLSI); format: cell-based; conditions: read-out: Minimum inhibitory concentration (MIC)
Experimental: (§3) In brief, a defined weight for each selected compound was dissolved in dimethylsulphoxide (DMSO) and used as a stock solution[29].

Klebsiella pneumonia [6] = experiment: MIC by microdilution (CLSI); format: cell-based; conditions: Klebsiella pneumoniae, read-out: Minimum inhibitory concentration (MIC)
Experimental: as §3

Pseudomonas aeruginosa [7] = experiment: MIC by microdilution (CLSI); format: cell-based; conditions: read-out: Minimum inhibitory concentration (MIC)
Experimental: as §3

Staphylococcus aureus [8] = experiment: MIC by microdilution (CLSI); format: cell-based; conditions: read-out: Minimum inhibitory concentration (MIC)
Experimental: as §3

Bacillus subtilis [9] = experiment: Agar well diffusion; format: cell-based; conditions: 20 µg/mL, read-out: Inhibition Zone
From the text: as §1, with “For bacterial ones, preinoculum was prepared using Nuitrent broth medium (Codalab, Spain) at 37 °C for 24 h. while the fungal pathogens were activated using Potato Dextrose broth (Codalab, Spain) at 28 °C for 48 h.” left out

Klebsiella pneumonia [10] = experiment: Agar well diffusion; format: cell-based; conditions: Klebsiella pneumoniae; Klebsiella pneumonia; 20 µg/mL; read-out: Inhibition Zone
From the text: as §1, with “For bacterial ones, preinoculum was prepared using Nuitrent broth medium (Codalab, Spain) at 37 °C for 24 h. while the fungal pathogens were activated using Potato Dextrose broth (Codalab, Spain) at 28 °C for 48 h.” left out

Pseudomonas aeruginosa [11] = experiment: Agar well diffusion; format: cell-based; conditions: 20 µg/mL, read-out: Inhibition Zone
From the text: as §1, with “For bacterial ones, preinoculum was prepared using Nuitrent broth medium (Codalab, Spain) at 37 °C for 24 h. while the fungal pathogens were activated using Potato Dextrose broth (Codalab, Spain) at 28 °C for 48 h.” left out

Staphylococcus aureus [12] = experiment: Agar well diffusion; format: cell-based
From the text: as §1, with “For bacterial ones, preinoculum was prepared using Nuitrent broth medium (Codalab, Spain) at 37 °C for 24 h. while the fungal pathogens were activated using Potato Dextrose broth (Codalab, Spain) at 28 °C for 48 h.” left out

[13] = system: HCT-116 (human colon cancer); experiment: MTT cytotoxicity assay; format: cell-based; conditions: 48 h; for IC50: HCT-116, MTT; for cytotoxicity at 100 µM: HCT-116, single dose 100 µM, read-out: Cytotoxicity (%)
Experimental: (§4) The MTT 3-(4,5-dimethylthiazol-2-yl)-2,5-diphenyl-tetrazolium bromide (Bio Basic Canada Inc. Toronto, Canada) assay was used to assess cell viability. The procedures were carried out in a biosafety class II sterile laminar air flow cabinet (Baker, SG403INT; Sanford, ME, USA). […] Cells were seeded at a density of (10^4 cells/well) into 96-well micro titer polypropylene plates and left to adhere for 24 h. The media was aspirated and the test chemicals were given to the cells in a single dose of 100 µM in DMSO. After 48 h of incubation, 40 µL of MTT salt ([…]) was applied to each well. […] Instead of the tested substances, the medium was applied to the untreated cells (negative control). […] The testing substance was dissolved in dimethylsulfoxide (DMSO), and its final concentration in the cells was less than 0.2%. The solvent concentration was the same for all medications and between the control and drug treatments at the same dilution.

MTT cytotoxicity assay = format: cell-based, human; conditions: human, BJ-1 normal skin fibroblast cells, BJ-1 normal cells
Experimental: as §4

[14] = system: MCF-7 (human breast cancer); experiment: MTT cytotoxicity assay; format: cell-based; conditions: Homo sapiens, MCF-7, 48 h
Experimental: as §4, with “The media was aspirated and the test chemicals were given to the cells in a single dose of 100 µM in DMSO.” left out

HCT-116 cells = experiment: Annexin V-FITC/PI necrosis cell apoptosis assay; format: cell-based, human; conditions: % of population
Experimental: (§5) The levels of necrosis and apoptosis in cells were determined by CytoFLEX Flow Cytometer. A total of 1 × 10^6 cells were washed in 1 × DPBS, and then were centrifuged at 500 × ϲ for 5 min. 1 μL of annexin V-FITC solution and 5 μL of dissolved PI were added to 100 μL of the cell suspensions that kept on ice and were incubated for 15 min in the dark. Cells were then analyzed by the CytoFLEX Flow Cytometer (Beckman Coulter Life Sciences, USA) and the percentage of apoptotic cells was determined using CytExpert Software.

MCF-7 cells = experiment: Annexin V-FITC/PI necrosis cell apoptosis assay; format: cell-based, human; conditions: % of population
Experimental: as §5

Row | SMILES | zone of inhibition at 20 µg/mL (Aspergillus fumagitus [1]) | zone of inhibition at 20 µg/mL (Candida albicans [2]) | zone of inhibition at 20 µg/mL (Bacillus subtilis [9]) | zone of inhibition at 20 µg/mL (Klebsiella pneumonia [10]) | zone of inhibition at 20 µg/mL (Staphylococcus aureus [12]) | melting point | further results
1 | C[C@@H]1[C@H](O)[C@@H](C)/C=C/C=C/C=C/C=C/C=C/C=C/C=C/[C@H](O[C@@H]2O[C@H](C)[C@@H](O)[C@H](N)[C@@H]2O)C[C@@H]2O[C@](O)(C[C@@H](O)C[C@@H](O)[C@H](O)CC[C@@H](O)C[C@@H](O)CC(=O)O[C@H]1C)C[C@H](O)[C@H]2C(=O)O [Amphotericin B, reference compound] | 5 mm | 4 mm | – | – | – | – | MIC (Aspergillus fumagitus [3]): 20 µg/mL (≈ 21.6 µM); MIC (Candida albicans [4]): 40 µg/mL (≈ 43.3 µM)
2 | CC1=C(C(=O)O)N2C(=O)[C@@H](NC(=O)[C@H](N)C3=CCC=CC3)[C@H]2SC1 [Cephradine, reference compound] | – | – | – | – | – | – | MIC (Bacillus subtilis [5]): 320 µg/mL (≈ 916 µM); MIC (Klebsiella pneumonia [6]): > 400 µg/mL; MIC (Pseudomonas aeruginosa [7]): > 400 µg/mL; MIC (Staphylococcus aureus [8]): > 400 µg/mL
3 | Cc1ccc(S(=O)(=O)NC(=O)N2CCCC2)cc1 [Compound 9, N-tosylpyrrolidine-1-carboxamide] | 2 mm | – | 6 mm | 2 mm | 4 mm | 228 to 230 °C | zone of inhibition at 20 µg/mL (Pseudomonas aeruginosa [11]): 2 mm
4 | Cc1ccc(S(=O)(=O)NC(=O)N2CCOCC2)cc1 [Compound 10, N-tosylmorpholine-4-carboxamide] | 2 mm | – | 2 mm | 2 mm | 4 mm | 210 to 211 °C | IC50 [13]: 72.6 ± 0.13 µM; cytotoxicity at 100 µM [13]: ≥ 65%; cytotoxicity at 48 h, 100 µM (MTT cytotoxicity assay): 19.7%
5 | Cc1ccc(S(=O)(=O)NC(=O)N2CCN(C)CC2)cc1 [Compound 11, 4-Methyl-N-tosylpiperazine-1-carboxamide] | – | – | – | 2 mm | 2 mm | 190 to 192 °C | –
6 | Cc1ccc(S(=O)(=O)NC(=O)N2CCCCC2)cc1 [Compound 12, N-tosylpiperidine-1-carboxamide] | – | 2 mm | – | 3 mm | 3 mm | 232 to 235 °C | –
7 | Cc1ccc(S(=O)(=O)NC(=O)NC23CC4CC(CC(C4)C2)C3)cc1 [Compound 13, N-(adamantan-1-ylcarbamoyl)-4-methylbenzenesulfonamide] | – | 3 mm | 6 mm | 2 mm | 2 mm | – | zone of inhibition at 20 µg/mL (Pseudomonas aeruginosa [11]): 3 mm; IC50 [13]: 43.5 ± 0.15 µM; cytotoxicity at 100 µM [13]: ≥ 65%; IC50 ([14]; MCF7, 48 h, MTT): 62.4 ± 0.128 µM; cytotoxicity at 100 µM ([14]; MCF7, single dose 100 µM, read-out: Cytotoxicity (%)): ≥ 51%; cytotoxicity at 48 h, 100 µM (MTT cytotoxicity assay): 2.7%; early apoptosis (HCT-116 cells): 45.07%; late apoptosis (HCT-116 cells): 0.42%; early apoptosis (MCF-7 cells): 2.24%; late apoptosis (MCF-7 cells): 0.58%
8 | Cc1ccc(NC(=O)N2CCCC2)cc1 [Compound 14, N-(p-tolyl)pyrrolidine-1-carboxamide] | 3 mm | 8 mm | 4 mm | 2 mm | 3 mm | 180 to 182 °C | –
